Data published in patent publication US20090012019A1, “Methods and Compositions Related to TR4” (priority 2005, published 2009).

Key:
TR4 [1] = test: Stress-induced TR4 expression in wt MEF; assay type: cell-based, mice; conditions: wt MEF treated with cobalt chloride to mimic hypoxia stress
[2] = short acting NO donor, vendor reagent (Alexis); cited from earlier work
TR4 [3] = conditions: C2C12 cells, 250 μM H2O2 for 2 h; mRNA at 4 hr, protein at 8 hr
Experimental: The levels of TR4 mRNA and proteins were measured by Q-PCR and Western blotting analyses.
To dissect potential molecular mechanism by which TR4 is involved in the ROS/DNA damage/DNA repair signal cascades, TR4 expression levels were examined upon exposure to genotoxic stress (such as H2O2).

With [Cl][Co][Cl] [cobalt chloride] the TR4 expression (TR4 [1]) was “up-regulated”.
For Nc1n[n+](-c2ccc(Cl)c(Cl)c2)no1.[Cl-] [GEA 3162, 1,2,3,4-oxatriazolium, 5-amino-3-(3,4-dichlorophenyl)-chloride], the halftime [2] is listed as ~3 min.
For OO [H2O2, hydrogen peroxide], the “TR4 mRNA and protein expression” value (TR4 [3]) was “increased”.
